From US7767200B2, “Cancer treatment using viruses, fluoropyrimidines and camptothecins” (Wellstat Biologics Corporation, priority 2005, dated 2010)

Tests used:
[1] = test system: human SW620 colon carcinoma cells; design: species or system athymic mice; conditions: mouse, in vivo
[2] = test system: human HT1080 fibrosarcoma cells; design: species or system athymic mice; conditions: mouse, in vivo

SMILES	Durable CRs, % [1] [%]	Complete Tumor Responses (CR), % [2] [%]
CCc1c2c(nc3ccc(OC(=O)N4CCC(N5CCCCC5)CC4)cc13)-c1cc3c(c(=O)n1C2)COC(=O)[C@]3(O)CC [Irinotecan, 7-ethyl-10-[4-(1-piperidino)-1-piperidino]-carbonyloxycamptothecin]	0	–
O=c1[nH]cc(F)c(=O)[nH]1 [5-FU, 5-fluorouracil]	0	0
